Laboratory results from patent US10070646B2, “Tetrazolinone compound and application thereof” (SUMITOMO CHEMICAL COMPANY, LIMITED, priority 2014, dated 2018).

Legend:
Type in all cases: in vivo
[1] = tested on: wheat leaf blotch fungus (Septoria tritici); assay: Test Example 3: wheat leaf blotch preventive foliar spray test; details: 500 ppm sprayed on wheat (APOGEE); spores inoculated after 4 days; 3 days at 18° C. high humidity then 14 to 18 days under illumination
From the text: Each of plastic pots was filled with soil and wheat (cultivar: APOGEE) was sowed and grown in a greenhouse for 10 days. Then, each water dilution prepared by adjusting so as to contain a predetermined concentration (500 ppm) of the present compound 1 was sprayed over stems and leaves of the wheat so that it sufficiently adhered to the surface of the leaves of the wheat. After spraying, the plant was air-dried. After 4 days, an aqueous suspension containing spores of wheat leaf blotch fungus (Septoria tritici) was sprayed over the wheat to inoculate the spores. After completion of the inoculation, the plant was placed at 18° C. under high humidity condition for 3 days and then placed under illumination for 14 to 18 days, and then the area of lesion was investigated. As a result, the area of lesion on the plant treated with the present compound was 30% or less of that on an untreated plant.

[2] = tested on: cucumber downy mildew fungus (Pseudoperonospora cubensis); assay: Test Example 8: cucumber downy mildew preventive foliar spray test; details: 200 ppm sprayed on cucumber (SAGAMI HANJIRO); zoospores inoculated after 1 day; one day high humidity then 6 days in greenhouse
From the text: (§1) Each of plastic pots was filled with soil and cucumber (cultivar: SAGAMI HANJIRO) was sowed and grown in a greenhouse for 19 days. Then, each water dilution prepared by adjusting so as to contain a predetermined concentration (200 ppm) of the present compound 1 was sprayed over stems and leaves of the cucumber so that it sufficiently adhered to the surface of the leaves of the cucumber. After spraying, the plant was air-dried and then, after 1 day, an aqueous suspension containing zoospores of cucumber downy mildew fungus (Pseudoperonospora cubensis) was sprayed to inoculate the zoospores. After the inoculation, the plant was placed stand at 23° C. for one day under high humidity condition, and then cultivated in a greenhouse at 24° C. in the daytime and 20° C. at night for 6 days, and then the area of lesion was investigated. As a result, the area of lesion on the plant treated with the present compound was 30% or less of that on an untreated plant.

[3] = tested on: cucumber anthracnose fungus (Colletotrichum lagenarium); assay: Test Example 7: cucumber anthracnose preventive foliar spray test; details: 50 ppm sprayed on cucumber (SAGAMI HANJIRO); spores inoculated after 1 day; one day high humidity then 6 days in greenhouse
From the text: as §1, with “(50” for “(200”, “spores” for “zoospores”, “anthracnose” for “downy mildew”, “(Colletotrichum lagenarium)” for “(Pseudoperonospora cubensis)”, “spores.” for “zoospores.”, “placed” for “placed stand”

[4] = tested on: kidney bean stem rot fungus (Sclerotinia sclerotiorum); assay: Test Example 2: kidney bean stem rot foliar spray test; details: 500 ppm sprayed on kidney bean (NAGAUZURA SAITOU); hyphae-containing PDA medium placed on leaves after air-drying; assessed four days after inoculation
From the text: Each of plastic pots was filled with soil and kidney bean (cultivar: NAGAUZURA SAITOU) was sowed and grown in a greenhouse for 8 days. Then, each water dilution prepared by adjusting so as to contain a predetermined concentration (500 ppm) of the present compound 1 was sprayed over stems and leaves of the kidney bean so that it sufficiently adhered to the surface of the leaves of the kidney bean. After spraying, the plant was air-dried and a PDA medium containing hyphae of the kidney bean stem rot fungus (Sclerotinia sclerotiorum) was placed on the leaves of the kidney bean. After the inoculation, all kidney beans were placed under high humidity condition only at night. Four days after the inoculation, the area of lesion was investigated. As a result, the area of lesion on the plant treated with the present compound was 30% or less of that on an untreated plant.

[5] = tested on: cucumber powdery mildew fungus (Sphaerotheca fuliginea, a QoI-resistant strain); assay: Test Example 4: cucumber powdery mildew (QoI-resistant strain) foliar spray test; details: 500 ppm sprayed on cucumber (SAGAMI HANJIRO), cytochrome b position 143 glycine to alanine, assessed after 8 days
From the text: Each of plastic pots was filled with soil and cucumber (cultivar: SAGAMI HANJIRO) was sowed and grown in a greenhouse for 12 days. Then, each water dilution prepared by adjusting so as to contain a predetermined concentration (500 ppm) of the present compound 1 was sprayed over stems and leaves of the cucumber so that it sufficiently adhered to the surface of the leaves of the cucumber. After spraying, the plant was air-dried and then inoculated by sprinkling with spores of cucumber powdery mildew fungus (Sphaerotheca fuliginea, a QoI-resistant strain in which, among the genes encoding cytochrome b, the amino acid residue at position 143 of cytochrome b is mutated from glycine to alanine). After the inoculation, the plant was cultivated in a greenhouse at 24° C. in the daytime and 20° C. at night for 8 days, and then the area of lesion was investigated. As a result, the area of lesion on the plant treated with the present compound was 30% or less of that on an untreated plant.

[6] = tested on: wheat rust fungus (Puccinia recondita); assay: Test Example 5: wheat rust preventive foliar spray test; details: 200 ppm sprayed on wheat (SHIROGANE); spores inoculated after 5 days; one day dark high humidity then 8 days under illumination
Experimental: Each of plastic pots was filled with soil and wheat (cultivar: SHIROGANE) was sowed and grown in a greenhouse for 9 days. Then, each water dilution prepared by adjusting so as to contain a predetermined concentration (200 ppm) of the present compound 1 was sprayed over stems and leaves of the wheat so that it sufficiently adhered to the surface of the leaves of the wheat. After spraying, the plant was air-dried and cultivated at 20° C. for 5 days under illumination, and then inoculated by sprinkling with spores of wheat rust fungus (Puccinia recondita). After the inoculation, the plant was placed at 23° C. for one day under dark and high humidity condition, and cultivated under illumination at 20° C. for 8 days, and then the area of lesion was investigated. As a result, the area of lesion on the plant treated with the present compound was 30% or less of that on an untreated plant.

[7] = tested on: barley net blotch fungus (Pyrenophora teres); assay: Test Example 1: barley net blotch preventive foliar spray test; details: 500 ppm sprayed on barley (MIKAMO GOLDEN) stems and leaves; spores inoculated after 2 days; 3 days high humidity then 7 days in greenhouse
From the text: (§2) Each of plastic pots was filled with soil and barley (cultivar: MIKAMO GOLDEN) was sowed and grown in a greenhouse for 7 days. Then, each water dilution prepared by adjusting so as to contain a predetermined concentration (500 ppm) of the present compound 1 was sprayed over stems and leaves of the barley so that it sufficiently adhered to the surface of the leaves of the barley. After spraying, the plant was air-dried. After 2 days, an aqueous suspension containing spores of barley net blotch fungus (Pyrenophora teres) was sprayed to inoculate the spores. After completion of the inoculation, the plant was placed for 3 days in a greenhouse at 23° C. in the daytime and 20° C. at night under high humidity condition and cultivated in a greenhouse for 7 days, and then the area of lesion was investigated. As a result, the area of lesion on the plant treated with of the present compound was 30% or less of that on an untreated plant.

[8] = tested on: barley scald fungus (Rhynchosporium secalis); assay: Test Example 6: barley scald preventive foliar spray test; details: 200 ppm sprayed on barley (MIKAMO GOLDEN); spores inoculated after 2 days; 3 days high humidity then 7 days in greenhouse
From the text: as §2, with “(200” for “(500”, “scald” for “net blotch”, “(Rhynchosporium secalis)” for “(Pyrenophora teres)”

Measured: area of lesion on the treated plant relative to that on an untreated plant

Cc1cccc(-n2nnn(C)c2=O)c1CSc1ccn(-c2ccc(Cl)cc2)n1 [present compound 1, 1-(2-{[1-(4-chlorophenyl)-1H-pyrazol-3-yl]thiomethyl}-3-methy1phenyl)-4-methyl-1,4-dihydrotetrazol-5-one]
≤ 30%: all assays above
